The supplement of paper PMC11061612

How the values were obtained:
[1] = test system: A2780 (Ovarian Carcinoma); experiment: Bliss excess, mean over the matrix (fraction); higher = more synergy
Procedure, shortened: (§1)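 Cell lines grown in DMEM/F12 or RPMI with 10% FBS were plated in 1536-well plates and held 24 hours at 37°C, 5% CO2 before 72 hours of exposure to two-drug dose matrices, with DMSO typically at 0.2%. CellTiter-Glo 2.0 luminescence gave viability, which was converted to inhibition. Vehicle wells were set to 0 and blank wells to 1. Combination Emax is the second-highest inhibition in the matrix, and Bliss excess is the observed combination effect minus the expected EA + EB − EA·EB, where EA and EB are the single-agent effects.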

AU565 (Breast Carcinoma) = experiment: as above
Procedure, shortened: as §1

[2] = test system: KYSE-140 (Esophageal Squamous Cell Carcinoma); experiment: as above
Procedure, shortened: as §1

[3] = test system: KYSE-220 (Esophageal Squamous Cell Carcinoma); experiment: as above
Procedure, shortened: as §1

[4] = test system: LS-411N (Colorectal Carcinoma); experiment: as above
Procedure, shortened: as §1

[5] = test system: 22RV1 (Prostate Carcinoma); experiment: combination Emax (second highest fraction inhibited in the dose matrix, 72 h); higher = more inhibition; extreme values may be limits of the assay
Procedure, shortened: as §1

A101D (Melanoma) = experiment: as above
Procedure, shortened: as §1

A204 (Rhabdomyosarcoma) = experiment: as above
Procedure, shortened: as §1

[6] = test system: CA46 (Burkitt's Lymphoma); experiment: as above
Procedure, shortened: as §1

[7] = test system: CGTH-W-1 (Thyroid Gland Carcinoma); experiment: as above
Procedure, shortened: as §1

COLO-792 (Melanoma) = experiment: as above
Procedure, shortened: as §1

HCC70 (Breast Carcinoma) = experiment: as above
Procedure, shortened: as §1

[8] = test system: HT55 (Colorectal Carcinoma); experiment: as above
Procedure, shortened: as §1

IM-9 (Non-Cancerous) = experiment: as above
Procedure, shortened: as §1

[9] = test system: JVM-2 (B-Cell Non-Hodgkin's Lymphoma); experiment: as above
Procedure, shortened: as §1

NB13 (Neuroblastoma) = experiment: as above
Procedure, shortened: as §1

[10] = test system: NCI-H1651 (Lung Adenocarcinoma); experiment: as above
Procedure, shortened: as §1

[11] = test system: NCI-H441 (Lung Adenocarcinoma); experiment: as above
Procedure, shortened: as §1

[12] = test system: SW620 (Colorectal Carcinoma); experiment: as above
Procedure, shortened: as §1

[13] = test system: huH-1 (Hepatocellular Carcinoma); experiment: as above
Procedure, shortened: as §1
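For Bliss excess, mean over the matrix in this document: after 72 h of two-drug dosing.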

Structure (SMILES) | Bliss excess [1] | Bliss excess (AU565 (Breast Carcinoma)) | Bliss excess [2] | Bliss excess [3] | Bliss excess [4] | combination Emax [5] | combination Emax (A101D (Melanoma)) | combination Emax (A204 (Rhabdomyosarcoma)) | combination Emax [6] | combination Emax [7] | combination Emax (COLO-792 (Melanoma)) | combination Emax (HCC70 (Breast Carcinoma)) | combination Emax [8] | combination Emax (IM-9 (Non-Cancerous)) | combination Emax [9] | combination Emax (NB13 (Neuroblastoma)) | combination Emax [10] | combination Emax [11] | combination Emax [12] | combination Emax [13]
COc1nnc2ccc(N3CCC(c4ccc(OCCN5CCN(C)C(=O)[C@H]5C)cc4)CC3)nn12 [AZD5153] + CCN(CCO)CCCOc1ccc2c(Nc3cc(CC(=O)Nc4cccc(F)c4)[nH]n3)ncnc2c1 [AZD2811] (first compound max 1 µM, 7x7, partner max 1 µM) | -0.0295 | -0.0016 | -0.0087 | 0.0083 | -0.0233 | 0.522 | 0.693 | 0.466 | 0.652 | 0.308 | 0.563 | 0.459 | 0.619 | 0.897 | 0.729 | 0.65 | 0.499 | 0.381 | 0.597 | 0.527
COc1nnc2ccc(N3CCC(c4ccc(OCCN5CCN(C)C(=O)[C@H]5C)cc4)CC3)nn12 [AZD5153] + C=CCn1c(=O)c2cnc(Nc3ccc(N4CCN(C)CC4)cc3)nc2n1-c1cccc(C(C)(C)O)n1 [AZD1775] (first compound max 1 µM, partner max 1 µM) | -0.0523 | -0.0144 | -0.0161 | -0.0622 | -0.0334 | 0.529 | 0.737 | 0.471 | 0.744 | 0.275 | 0.856 | 0.44 | 0.81 | 0.975 | 0.897 | 0.813 | 0.822 | 0.436 | 0.685 | 0.558
CC1(C)CCC(CN2CCN(c3ccc(C(=O)NS(=O)(=O)c4ccc(NCC5CCOCC5)c([N+](=O)[O-])c4)c(Oc4cnc5[nH]ccc5c4)c3)CC2)=C(c2ccc(Cl)cc2)C1 [Venetoclax] + CCN(CCO)CCCOc1ccc2c(Nc3cc(CC(=O)Nc4cccc(F)c4)[nH]n3)ncnc2c1 [AZD2811] (first compound max 1 µM, 7x7, partner max 1 µM) | 0.019 | 0.0097 | -0.0045 | 0.0335 | -0.0284 | 0.232 | 0.477 | 0.368 | 0.0318 | 0.272 | 0.446 | 0.616 | 0.235 | 0.976 | 0.681 | 0.548 | 0.233 | 0.365 | 0.229 | 0.191
COc1cccc(OCCCN)c1-c1cc(Nc2cnc(C#N)cn2)n[nH]1 [Prexasertib] + C[C@@H]1COCCN1C2=NC(=NC(=C2)C3(CC3)[S@](=N)(=O)C)C4=C5C=CNC5=NC=C4 [AZD6738] (first compound max 1 µM, 7x7, partner max 10 µM) | -0.0173 | -0.0612 | -0.0191 | -0.0294 | -0.0349 | 0.655 | 0.773 | 0.534 | 0.599 | 0.711 | 0.351 | 0.908 | 0.65 | 1 | 0.949 | 0.943 | 0.722 | 0.544 | 0.744 | 0.762
COc1cccc2c1C(=O)c1c(O)c3c(c(O)c1C2=O)C[C@@](O)(C(=O)CO)C[C@@H]3O[C@H]1C[C@H](N)[C@H](O)[C@H](C)O1 [Doxorubicin] + Cc1cc2ncnn2cc1Nc1ncc2c(n1)n(C1CCOCC1)c(=O)n2C [AZD7648] (first compound max 1 µM, 7x7, partner max 10 µM) | 0.0194 | 0.0753 | 0.05 | 0.0232 | 0.0365 | 0.805 | 0.897 | 0.925 | 0.777 | 0.749 | 0.445 | 0.488 | 0.678 | 1 | 0.983 | 0.923 | 0.712 | 0.452 | 0.787 | 0.55
CC1(C)CCC(CN2CCN(c3ccc(C(=O)NS(=O)(=O)c4ccc(NCC5CCOCC5)c([N+](=O)[O-])c4)c(Oc4cnc5[nH]ccc5c4)c3)CC2)=C(c2ccc(Cl)cc2)C1 [Venetoclax] + Cc1cc2ncnn2cc1Nc1ncc2c(n1)n(C1CCOCC1)c(=O)n2C [AZD7648] (first compound max 1 µM, 7x7, partner max 10 µM) | -0.03 | 0.0266 | -0.0044 | -0.0371 | -0.0184 | 0.456 | 0.451 | 0.408 | 0.132 | 0.259 | 0.411 | 0.399 | 0.205 | 0.655 | 0.528 | 0.368 | 0.191 | 0.264 | 0.175 | 0.162
CCc1c2c(nc3ccc(O)cc13)-c1cc3c(c(=O)n1C2)COC(=O)[C@]3(O)CC [SN-38] + O=C(c1cc(Cc2n[nH]c(=O)c3ccccc23)ccc1F)N1CCN(C(=O)C2CC2)CC1 [Olaparib] (first compound max 0.3 µM, 7x7, partner max 10 µM) | 0.0545 | 0.0698 | – | 0.0078 | -0.012 | 0.697 | 0.757 | – | – | 0.768 | 0.484 | 0.455 | 0.489 | 1 | 0.934 | 0.832 | 0.902 | 0.709 | 0.822 | 0.794
C=CCn1c(=O)c2cnc(Nc3ccc(N4CCN(C)CC4)cc3)nc2n1-c1cccc(C(C)(C)O)n1 [AZD1775] + C1CN(CCC1(C(=O)N[C@@H](CCO)C2=CC=C(C=C2)Cl)N)C3=NC=NC4=C3C=CN4 [Capivasertib] (first compound max 3 µM, partner max 3 µM) | 0.0361 | -0.0494 | -0.0859 | -0.0206 | -0.0551 | 0.616 | 0.757 | 0.529 | 0.843 | 0.211 | 0.651 | 0.754 | 0.831 | 1 | 0.93 | – | 0.794 | 0.454 | 0.8 | 0.666
Cn1cnc2c(F)c(Nc3ccc(Br)cc3Cl)c(C(=O)NOCCO)cc21 [Selumetinib] + CC(C)n1c(=O)n(C)c2cnc3cc(F)c(-c4ccc(OCCCN5CCCCC5)nc4)cc3c21 [AZD1390] (first compound max 10 µM, 7x7, partner max 0.3 µM) | -0.0369 | 0.005 | -0.0337 | 0.0022 | -0.0107 | 0.307 | 0.528 | 0.149 | 0.306 | 0.044 | 0.498 | 0.268 | 0.669 | 0.796 | 0.352 | 0.0733 | 0.125 | 0.221 | 0.615 | 0.107
CC(=O)c1c(C)c2cnc(Nc3ccc(N4CCNCC4)cn3)nc2n(C2CCCC2)c1=O [Palbociclib] + CC1(C)CCC(CN2CCN(c3ccc(C(=O)NS(=O)(=O)c4ccc(NCC5CCOCC5)c([N+](=O)[O-])c4)c(Oc4cnc5[nH]ccc5c4)c3)CC2)=C(c2ccc(Cl)cc2)C1 [Venetoclax] (first compound max 10 µM, 7x7, partner max 1 µM) | 0.0005 | 0.0161 | -0.0285 | -0.081 | -0.0247 | 0.382 | 0.424 | 0.308 | 0.355 | 0.122 | 0.29 | 0.0684 | 0.478 | 0.776 | 0.762 | 0.283 | 0.0383 | 0.224 | 0.385 | 0.119
Cn1cnc2c(F)c(Nc3ccc(Br)cc3Cl)c(C(=O)NOCCO)cc21 [Selumetinib] + C=CCn1c(=O)c2cnc(Nc3ccc(N4CCN(C)CC4)cc3)nc2n1-c1cccc(C(C)(C)O)n1 [AZD1775] (first compound max 10 µM, partner max 1 µM) | -0.0352 | -0.0507 | -0.0514 | -0.0391 | -0.0554 | 0.406 | 0.64 | 0.276 | 0.635 | 0.0375 | 0.694 | 0.562 | 0.792 | 1 | 0.906 | 0.794 | 0.574 | 0.41 | 0.731 | 0.48
CS(=O)(=O)CCNCc1ccc(-c2ccc3ncnc(Nc4ccc(OCc5cccc(F)c5)c(Cl)c4)c3c2)o1 [Lapatinib] + NC1(c2ccc(-c3nc4ccn5c(=O)[nH]nc5c4cc3-c3ccccc3)cc2)CCC1 [MK-2206] (first compound max 10 µM, 7x7, partner max 10 µM) | -0.027 | – | – | -0.0099 | -0.0339 | 0.835 | 0.967 | – | – | 0.894 | – | 0.923 | – | 0.964 | – | 0.952 | 0.442 | 0.473 | 0.889 | –
CN(C)CCCOc1ccc(-c2ccc3ncc4c(c3c2)n(C2CCOCC2)c(=O)n4C)cn1 [AZD0156] + O=C(c1cc(Cc2n[nH]c(=O)c3ccccc23)ccc1F)N1CCN(C(=O)C2CC2)CC1 [Olaparib] (first compound max 3 µM, partner max 3 µM) | 0.198 | 0.0442 | -0.0069 | 0.191 | 0.0922 | 0.483 | 0.411 | 0.467 | 0.567 | 0.214 | 0.294 | 0.359 | 0.209 | 0.656 | 0.533 | – | 0.493 | 0.328 | 0.337 | 0.174
